From ChEMBL document CHEMBL5131384, “Design, synthesis, and biological evaluation of indole-based hydroxamic acid derivatives as histone deacetylase inhibitors” (Eur J Med Chem, 2022)

What follows are compounds tested on HCT-116 (assay: Antiproliferative activity against human HCT-116 cells assessed as reduction in cell viability incubated for 72 hrs by WST-8 assay). Details: HCT-116, 72 h.
Format: functional, cell-based

Going from `O=C(CCCCCCn1cc(C(=O)Nc2ccc(Cl)cc2Cl)c2ccccc21)NO` to `O=C(CCCCCCn1cc(C(=O)NCc2ccc(Cl)cc2)c2ccccc21)NO`, the IC50 rises from 4.5 µM to greater than 100 µM. The first is the more potent here.

`O=C(CCCCCCn1cc(C(=O)NC2CCCCC2)c2ccccc21)NO` showed an IC50 of 15 µM.

What follows are compounds tested on SGC-7901 (assay: Antiproliferative activity against human SGC-7901 cells assessed as reduction in cell viability incubated for 72 hrs by WST-8 assay). Details: SGC-7901, 72 h.
Format: functional, cell-based

Compared with `O=C(CCCCCCn1cc(C(=O)Nc2ccc(Cl)cc2Cl)c2ccccc21)NO`, `O=C(CCCCCCn1cc(C(=O)NCc2ccc(Cl)cc2)c2ccccc21)NO` is higher in IC50: 2.59 µM for the first, greater than 100 µM for the second.

`O=C(CCCCCCn1cc(C(=O)NC2CCCCC2)c2ccccc21)NO` showed an IC50 of 25.4 µM.

Each compound was assayed on HL-60 (assay: Antiproliferative activity against human HL-60 cells assessed as reduction in cell viability incubated for 72 hrs by WST-8 assay). Details: HL-60, 72 h.
Format: functional, cell-based

Going from `O=C(CCCCCCn1cc(C(=O)Nc2ccc(Cl)cc2Cl)c2ccccc21)NO` to `O=C(CCCCCCn1cc(C(=O)NCc2ccc(Cl)cc2)c2ccccc21)NO`, the IC50 rises from 10.5 µM to 72.9 µM (6.9-fold). The first is the more potent here.

`O=C(CCCCCCn1cc(C(=O)NC2CCCCC2)c2ccccc21)NO` showed an IC50 of 8.5 µM.

What follows are compounds tested against Histone deacetylase 1 (Homo sapiens, UniProt Q13547) (assay: Inhibition of HDAC1 (unknown origin) using Boc-Lys(Ac)-AMC as substrate incubated for 60 mins by fluorescence plate reader assay). Details: not given.
Sequence of Histone deacetylase 1 (Q13547 whole entry): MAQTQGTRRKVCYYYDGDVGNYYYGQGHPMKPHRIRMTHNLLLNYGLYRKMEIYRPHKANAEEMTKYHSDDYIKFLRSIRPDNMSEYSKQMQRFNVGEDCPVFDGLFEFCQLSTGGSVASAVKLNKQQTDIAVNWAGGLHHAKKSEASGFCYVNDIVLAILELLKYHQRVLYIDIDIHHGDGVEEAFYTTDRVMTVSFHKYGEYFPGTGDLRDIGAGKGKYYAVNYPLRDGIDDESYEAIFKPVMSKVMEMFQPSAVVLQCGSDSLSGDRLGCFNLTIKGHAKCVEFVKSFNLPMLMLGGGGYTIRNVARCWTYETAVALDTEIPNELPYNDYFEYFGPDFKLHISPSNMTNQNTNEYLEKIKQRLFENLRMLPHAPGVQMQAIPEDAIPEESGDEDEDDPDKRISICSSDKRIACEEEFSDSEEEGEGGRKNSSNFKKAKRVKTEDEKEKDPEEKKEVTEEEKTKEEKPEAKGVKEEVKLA

`O=C(CCCCCCn1cc(C(=O)Nc2ccc(Cl)cc2Cl)c2ccccc21)NO` and `O=C(CCCCCCn1cc(C(=O)NCc2ccc(Cl)cc2)c2ccccc21)NO` are within 1.5-fold of each other in IC50: 0.00253 µM for the first, 0.00231 µM for the second.

`O=C(CCCCCCn1cc(C(=O)NC2CCCCC2)c2ccccc21)NO` gave an IC50 of 0.00156 µM.

What follows are compounds tested against T1, Protein deacetylase HDAC6 (Homo sapiens, UniProt Q9UBN7) (assay: Inhibition of HDAC6 (unknown origin) using Boc-Lys(Ac)-AMC as substrate incubated for 60 mins by fluorescence plate reader assay). Details: not given.
T1 sequence (Q9UBN7 whole entry): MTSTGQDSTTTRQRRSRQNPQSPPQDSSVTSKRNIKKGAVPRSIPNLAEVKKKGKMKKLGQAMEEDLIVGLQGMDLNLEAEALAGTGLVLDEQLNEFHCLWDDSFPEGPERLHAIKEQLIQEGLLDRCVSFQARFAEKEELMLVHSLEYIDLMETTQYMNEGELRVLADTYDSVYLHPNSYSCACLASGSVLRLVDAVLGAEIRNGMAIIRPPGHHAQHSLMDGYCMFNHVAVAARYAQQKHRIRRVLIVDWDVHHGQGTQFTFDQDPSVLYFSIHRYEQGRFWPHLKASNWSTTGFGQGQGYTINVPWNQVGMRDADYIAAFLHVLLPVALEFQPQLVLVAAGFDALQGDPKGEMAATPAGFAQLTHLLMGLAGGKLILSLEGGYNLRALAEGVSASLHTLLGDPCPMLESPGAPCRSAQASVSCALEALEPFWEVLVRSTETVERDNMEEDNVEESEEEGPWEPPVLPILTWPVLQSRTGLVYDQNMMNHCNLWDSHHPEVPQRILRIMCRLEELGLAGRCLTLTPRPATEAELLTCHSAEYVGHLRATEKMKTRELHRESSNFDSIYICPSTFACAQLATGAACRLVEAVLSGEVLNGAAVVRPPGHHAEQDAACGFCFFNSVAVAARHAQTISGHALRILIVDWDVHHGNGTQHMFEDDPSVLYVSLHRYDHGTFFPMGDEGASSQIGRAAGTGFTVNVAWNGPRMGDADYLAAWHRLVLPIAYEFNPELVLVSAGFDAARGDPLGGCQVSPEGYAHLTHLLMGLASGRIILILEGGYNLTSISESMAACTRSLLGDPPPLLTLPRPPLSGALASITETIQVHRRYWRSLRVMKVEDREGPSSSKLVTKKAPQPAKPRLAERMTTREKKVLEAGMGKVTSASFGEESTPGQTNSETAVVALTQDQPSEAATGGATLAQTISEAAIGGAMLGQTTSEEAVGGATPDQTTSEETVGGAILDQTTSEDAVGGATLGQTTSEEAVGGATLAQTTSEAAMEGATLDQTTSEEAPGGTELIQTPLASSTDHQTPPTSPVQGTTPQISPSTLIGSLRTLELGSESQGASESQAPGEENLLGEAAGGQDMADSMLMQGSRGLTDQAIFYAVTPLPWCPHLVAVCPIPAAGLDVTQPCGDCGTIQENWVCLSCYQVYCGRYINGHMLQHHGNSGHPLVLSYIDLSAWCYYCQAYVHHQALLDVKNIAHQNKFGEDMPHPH

Going from `O=C(CCCCCCn1cc(C(=O)Nc2ccc(Cl)cc2Cl)c2ccccc21)NO` to `O=C(CCCCCCn1cc(C(=O)NCc2ccc(Cl)cc2)c2ccccc21)NO`, the IC50 falls from 0.00373 µM to 0.00156 µM (2.4-fold).

For `O=C(CCCCCCn1cc(C(=O)NC2CCCCC2)c2ccccc21)NO`, the IC50 was 0.00232 µM.

These compounds were tested on A549 (assay: Antiproliferative activity against human A549 cells assessed as reduction in cell viability incubated for 72 hrs by WST-8 assay). Details: A549, 72 h.
Format: functional, cell-based

Compared with `O=C(CCCCCCn1cc(C(=O)Nc2ccc(Cl)cc2Cl)c2ccccc21)NO`, `O=C(CCCCCCn1cc(C(=O)NCc2ccc(Cl)cc2)c2ccccc21)NO` is higher in IC50: 47 µM for the first, greater than 100 µM for the second. The first is the more potent here.

`O=C(CCCCCCn1cc(C(=O)NC2CCCCC2)c2ccccc21)NO` was tested, and the IC50 was greater than 100 µM.

What follows are compounds tested on MDA-MB-231 (assay: Antiproliferative activity against human MDA-MB-231 cells assessed as reduction in cell viability incubated for 72 hrs by WST-8 assay). Details: MDA-MB-231, 72 h.
Format: functional, cell-based

First: O=C(CCCCCCn1cc(C(=O)Nc2ccc(Cl)cc2Cl)c2ccccc21)NO
Second: O=C(CCCCCCn1cc(C(=O)NCc2ccc(Cl)cc2)c2ccccc21)NO
The IC50 of the first is lower: 16.2 µM for the first, greater than 100 µM for the second. The first is the more potent here.

Work on `O=C(CCCCCCn1cc(C(=O)NC2CCCCC2)c2ccccc21)NO` yielded an IC50 greater than 100 µM.
